Source: ChEMBL document CHEMBL1122548, “1-Aryl-3,3-dimethyltriazenes: potential central nervous system active analogues of 5-(3,3-dimethyl-1-triazeno)imidazole-4-carboxamide (DTIC)” (J Med Chem, 1984)

Key:
Mus musculus [1] = assay: Percent increase in life span was measured in B6C3F1 mice after implanting murine Ependymoblastoma cells(ic) at an intraperitoneal optimal dose of 128 mg/ (kg injection)
Mus musculus [2] = assay: Maximum increase in life span was measured in B6d2F1 mice after implanting murine leukemia L1210 cells(ip, 10e5 cells) at an intraperitoneal optimal dose of 39 mg/ (kg day)(qd 1-9); type: functional
Mus musculus [3] = assay: Maximum increase in life span was measured in B6d2F1 mice after implanting murine leukemia L1210 cells(ic, 10e4 cells) at an intracerebral optimal dose of 160 mg/ (kg day)(qd 1-9); type: functional
[4] = Partition coefficient (logP); type: physicochemical; details: octanol/water
Mus musculus [5] = assay: Maximum increase in life span was measured in B6d2F1 mice after implanting murine leukemia L1210 cells(ip, 10e5 cells) at an intraperitoneal optimal dose of 108 mg/ (kg day)(qd 1-9); type: functional
Mus musculus [6] = assay: Percent increase in life span was measured in B6C3F1 mice after implanting murine Ependymoblastoma cells(ic) at an intraperitoneal optimal dose of 64 mg/ (kg injection)
Mus musculus [7] = assay: Maximum increase in life span was measured in B6d2F1 mice after implanting murine leukemia L1210 cells(ic, 10e4 cells) at an intracerebral optimal dose of 40 mg/ (kg day)(qd 1-9); type: functional
Mus musculus [8] = assay: Maximum increase in life span was measured in B6d2F1 mice after implanting murine leukemia L1210 cells(ic, 10e4 cells) at an intracerebral optimal dose of 80 mg/ (kg day)(qd 1-9); type: functional
Mus musculus [9] = assay: Percent increase in life span was measured in B6C3F1 mice after implanting murine Ependymoblastoma cells(ic) at an intraperitoneal optimal dose of 32 mg/ (kg injection)
Mus musculus [10] = assay: Maximum increase in life span was measured in B6d2F1 mice after implanting murine leukemia L1210 cells(ip, 10e5 cells) at an intraperitoneal optimal dose of 65 mg/(kg day)(qd 1-9); type: functional
Mus musculus [11] = assay: Maximum increase in life span was measured in B6d2F1 mice after implanting murine leukemia L1210 cells(ic, 10e4 cells) at an intracerebral optimal dose of 40 mg/(kg day)(qd 1-9); type: functional
Mus musculus [12] = assay: Maximum increase in life span was measured in B6d2F1 mice after implanting murine leukemia L1210 cells(ip, 10e5 cells) at an intraperitoneal optimal dose of 65 mg/ (kg day)(qd 1-9); type: functional
Mus musculus [13] = assay: Maximum increase in life span was measured in B6d2F1 mice after implanting murine leukemia L1210 cells(ic, 10e4 cells) at an intracerebral optimal dose of 20 mg/ (kg day)(qd 1-9); type: functional
Mus musculus [14] = assay: Percent increase in life span was measured in B6C3F1 mice after implanting murine Ependymoblastoma cells(ic) at an intraperitoneal optimal dose of 8 mg/ (kg injection)
Mus musculus [15] = assay: Percent increase in life span was measured in B6d2F1 mice after implanting B16 melanoma cells(ic) at an intracerebral (ic) optimal dose of 40-80 mg/ (kg day); type: functional
Mus musculus [16] = assay: Maximum increase in life span was measured in B6d2F1 mice after implanting murine leukemia L1210 cells(ip, 10e5 cells) at an intraperitoneal optimal dose of 300 mg/ (kg day)(qd 1-9); type: functional
Mus musculus [17] = assay: Percent increase in life span was measured in B6d2F1 mice after implanting B16 melanoma cells(ic) at an intracerebral (ic) optimal dose of 10-40 mg/ (kg day); type: functional

COC(=O)c1cccc(/N=N/N(C)C)c1
ILS (Mus musculus [1]): 62%
ILS (Mus musculus [2]): 30%
ILS (Mus musculus [3]): 10%
logP ([4]; read-out: logP): 2.77

CN(C)/N=N/c1c(Br)cccc1Br
ILS (Mus musculus [5]): 44%
ILS (Mus musculus [3]): 14%
logP ([4]; read-out: logP): 4.31

COC(=O)c1ccc(/N=N/N(C)C)cc1
ILS (Mus musculus [6]): 64%
ILS (Mus musculus [2]): 40%
ILS (Mus musculus [3]): 7%
logP ([4]; read-out: logP): 2.77

CN(C)/N=N/c1cccc(C(N)=O)c1
ILS (Mus musculus [2]): 50%
logP ([4]; read-out: logP): 1.21
ILS (Mus musculus [7]): 22%

CN(C)/N=N/c1ccc(C(=O)O)cc1
ILS (Mus musculus [8]): 25%
ILS (Mus musculus [2]): 41%
ILS (Mus musculus [9]): 18%
logP [4]: -1.77

COC(=O)c1ccccc1/N=N/N(C)C
ILS (Mus musculus [10]): 11%
logP ([4]; read-out: logP): 2.72
ILS (Mus musculus [11]): 14%

CN(C)/N=N/c1ccccc1Cl
ILS (Mus musculus [1]): 38%
ILS (Mus musculus [8]): 5%
ILS (Mus musculus [12]): 21%

CN(C)/N=N/c1ccccc1C(=O)O
ILS (Mus musculus [13]): 6%
ILS (Mus musculus [12]): 12%
logP ([4]; read-out: logP): -2.66
ILS (Mus musculus [14]): 2%

CN(C)/N=N/c1ccc(C(N)=O)cc1
ILS (Mus musculus [15]): 30%
ILS (Mus musculus [2]): 40%
ILS (Mus musculus [9]): 62%
ILS (Mus musculus [3]): 45%
logP [4]: 1.2

CN(C)/N=N/c1c(Cl)cccc1Cl
ILS (Mus musculus [5]): 39%
ILS (Mus musculus [3]): 12%
logP ([4]; read-out: logP): 4.01

CN(C)/N=N/c1cccc(Cl)c1
ILS (Mus musculus [5]): 11%
logP ([4]; read-out: logP): 3.3
ILS (Mus musculus [7]): 7%

CC(=O)c1ccccc1/N=N/N(C)C
ILS (Mus musculus [5]): 0%
logP ([4]; read-out: logP): 2.19
ILS (Mus musculus [7]): 9%

CC(=O)c1cccc(/N=N/N(C)C)c1
ILS (Mus musculus [12]): 55%
logP ([4]; read-out: logP): 2.19
ILS (Mus musculus [7]): 6%

CN(C)/N=N/c1ccccc1C(N)=O
ILS (Mus musculus [12]): 10%
ILS (Mus musculus [7]): 10%

CN(C)/N=N/c1ccc(I)cc1
ILS (Mus musculus [16]): 5%
logP ([4]; read-out: logP): 3.71

CN(C)/N=N/c1ccc(Br)cc1
ILS (Mus musculus [16]): 0%
logP ([4]; read-out: logP): 3.45

CC(=O)c1ccc(/N=N/N(C)C)cc1
ILS (Mus musculus [13]): 5%
ILS (Mus musculus [5]): 16%
logP ([4]; read-out: logP): 2.19

CN(C)/N=N/c1ccc(F)cc1
ILS (Mus musculus [16]): 16%
logP ([4]; read-out: logP): 2.73

CN(C)/N=N/c1ccc(Cl)cc1
ILS (Mus musculus [5]): 26%
ILS (Mus musculus [8]): 2%
logP ([4]; read-out: logP): 3.3

CN(C)/N=N/c1[nH]cnc1C(N)=O [DACARBAZINE]
ILS (Mus musculus [17]): 8%
ILS (Mus musculus [5]): 50%
ILS (Mus musculus [6]): 60%
ILS (Mus musculus [3]): 18%
logP [4]: -0.24
